The text below walks through data of the Kinase Knowledgebase extract (Sharma et al. 2016).

Where “and” joins values, the source holds several entries; their conditions need not be identical. Identical values can stand only once. Some results are limits rather than exact numbers.

The IC50 is the concentration that gives 50% inhibition. Read a high IC50 as weaker potency.

In one assay the target is EGFR (UniProt P00533).
EGFR, sequence (P00533 whole entry, looked up): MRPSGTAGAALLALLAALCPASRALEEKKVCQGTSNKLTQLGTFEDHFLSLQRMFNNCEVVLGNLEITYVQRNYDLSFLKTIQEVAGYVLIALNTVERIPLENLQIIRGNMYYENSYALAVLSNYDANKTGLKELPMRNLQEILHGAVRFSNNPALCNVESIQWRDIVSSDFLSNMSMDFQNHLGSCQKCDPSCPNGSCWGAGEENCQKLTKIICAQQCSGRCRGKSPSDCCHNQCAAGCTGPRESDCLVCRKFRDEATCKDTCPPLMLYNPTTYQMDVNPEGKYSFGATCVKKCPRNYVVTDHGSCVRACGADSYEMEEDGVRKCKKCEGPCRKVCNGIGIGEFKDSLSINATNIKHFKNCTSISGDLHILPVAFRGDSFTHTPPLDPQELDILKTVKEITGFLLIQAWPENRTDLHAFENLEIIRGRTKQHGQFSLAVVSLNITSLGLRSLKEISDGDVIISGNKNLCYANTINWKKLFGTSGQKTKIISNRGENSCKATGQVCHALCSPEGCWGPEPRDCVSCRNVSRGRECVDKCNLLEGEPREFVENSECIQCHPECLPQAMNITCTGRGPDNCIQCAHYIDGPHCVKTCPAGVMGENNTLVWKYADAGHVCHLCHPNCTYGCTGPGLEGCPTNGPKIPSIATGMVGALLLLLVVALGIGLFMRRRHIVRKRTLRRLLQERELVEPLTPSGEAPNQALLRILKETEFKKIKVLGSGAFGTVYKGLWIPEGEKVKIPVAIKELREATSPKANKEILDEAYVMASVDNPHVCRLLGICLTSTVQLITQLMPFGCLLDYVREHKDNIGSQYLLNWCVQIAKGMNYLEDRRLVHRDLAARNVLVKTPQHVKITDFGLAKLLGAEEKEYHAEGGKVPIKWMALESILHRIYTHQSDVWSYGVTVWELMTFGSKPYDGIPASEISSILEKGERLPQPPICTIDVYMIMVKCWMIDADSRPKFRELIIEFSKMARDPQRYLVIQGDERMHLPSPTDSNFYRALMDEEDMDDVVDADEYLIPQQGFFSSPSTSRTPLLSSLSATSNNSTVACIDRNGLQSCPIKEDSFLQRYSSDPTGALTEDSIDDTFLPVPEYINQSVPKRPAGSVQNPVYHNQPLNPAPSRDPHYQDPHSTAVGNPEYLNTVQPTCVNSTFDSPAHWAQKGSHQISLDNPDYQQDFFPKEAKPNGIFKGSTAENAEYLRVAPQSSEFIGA
Settings: not given
Take `Clc1cccc(Nc2ncnc3[nH]nc(Nc4cccc(Cl)c4)c23)c1`: the IC50 was 0.033 µM.

`COC(=O)Cc1c(SSc2[nH]c3ccccc3c2CC(=O)OC)[nH]c2ccccc12` yielded a half-inhibitory concentration (IC50) of 18 µM.

`COc1cc2ncnc(Nc3ccc(F)c(Br)c3)c2cc1OCCCN1CCOCC1` returned an IC50 of 0.02 µM.

`Brc1cccc(Nc2ncnc3cc(NCCCN4CCOCC4)ncc23)c1`: the IC50 is 0.0074 µM.

The molecule `Brc1cccc(Nc2ncnc3cc4[nH]ncc4cc23)c1` registered an IC50 of 0.00044 µM.

`Nc1nc(N)c2c(Nc3cccc(Cl)c3)n[nH]c2n1` yielded an IC50 of 0.22 µM.

Regarding `CC(=O)Oc1cccc2c1c(C(=O)Nc1ccccc1)c(SSc1c(C(=O)Nc3ccccc3)c3c(OC(C)=O)cccc3n1C)n2C`, the 50% inhibitory concentration (IC50) came to 10 µM.

In the case of `CN(C)CCCCNc1cc2ncnc(Nc3cccc(Br)c3)c2cn1`, the IC50 worked out at 0.0019 µM.

`Cc1cccc2c(CCC(=O)O)c(SSc3[nH]c4c(C)cccc4c3CCC(=O)O)[nH]c12`: the IC50 stood at 1.5 µM.

`Brc1cccc(Nc2ncnc3cc4[nH]ccc4cc23)c1` came in with a 50% inhibitory concentration (IC50) of 0.00044 µM.

In the case of `COc1cc2ncnc(N(C)c3cccc(C)c3)c2cc1OC`, the IC50 came to 12 µM.

As for `COc1cccc(CNc2n[nH]c3ncnc(Nc4cccc(Cl)c4)c23)c1`, the IC50 was determined as 0.008 µM.

As to `CNC(=O)c1c([Se][Se]c2c(C(=O)NC)c3ccccc3n2C)n(C)c2ccccc12`, the IC50 is 6.1 µM.

Regarding `COc1cc2c(NC3CC3c3ccccc3)ncnc2cc1OCCCN(C)C` (centres undefined), the 50% inhibitory concentration (IC50) was found to be 0.003 µM.

With `Clc1cccc(Nc2ncnc3[nH]c4ccccc4c23)c1`, the IC50 stood at 0.006 µM.

Molecule `Brc1cccc(Nc2ncnc3cc4cn[nH]c4cc23)c1` showed a half-maximal inhibitory concentration (IC50) of 0.00034 µM.

For the molecule `Cc1cccc(N(C)c2ncnc3[nH]ncc23)c1`, the half-inhibitory concentration (IC50) was more than 50 µM.

As to `Clc1cccc(Nc2ncnc3ccccc23)c1`, the half-inhibitory concentration (IC50) is 0.04 µM and 0.027 µM.

`CNc1cc2ncnc(Nc3cccc(Br)c3)c2cn1` gave a 50% inhibitory concentration (IC50) of 9.1e-05 µM.

As for `O=C1NC(=O)c2cc(NC3CCCCC3)c(NC3CCCCC3)cc21`, the IC50 is more than 1000 µM.

For `COc1cc2ncnc(N[C@H](C)c3cccc(Br)c3)c2cc1OC`, the half-inhibitory concentration (IC50) came out at 0.0016 µM.

With `Cn1c(SSc2c(C(=O)Nc3ccccc3)c3ccccc3n2C)c(C(=O)Nc2ccccc2)c2ccccc21`, the 50% inhibitory concentration (IC50) amounted to 20 µM.

As to `COc1cc2ncnc(Nc3cncc4ccccc34)c2cc1OC`, the half-maximal inhibitory concentration (IC50) was determined as 0.006 µM.

For the molecule `C=CC(=O)Nc1ccc2c(c1)sc1c(Nc3cccc(Br)c3)ncnc12`, the 50% inhibitory concentration (IC50) amounted to 0.021 µM.

Regarding `COc1cc2ncnc(NC3CC3c3ccccc3)c2cc1OC` (centres undefined), the IC50 is 0.01 µM.

`O=CN/C=C/c1cc(O)ccc1O` came in with an IC50 of 0.367 µM.

With `C=CC(=O)Nc1ccc2sc3c(Nc4cccc(Br)c4)ncnc3c2c1`, the IC50 came to 0.023 µM.

With `COc1cc2ncnc(N[C@@H](C)c3cccc(Br)c3)c2cc1OC`, the concentration for half-maximal inhibition (IC50) is 3.76 µM.

Molecule `COc1cc2ncnc(NCc3cccc(Br)c3)c2cc1OC` came in with a half-inhibitory concentration (IC50) of 0.01 µM.

Molecule `C=CC(=O)Nc1cccc2c1sc1c(Nc3cccc(Br)c3)ncnc12` came in with a half-maximal inhibitory concentration (IC50) of 0.0014 µM.

`Nc1ccc(-c2n[nH]c3ncnc(Nc4cccc(Cl)c4)c23)cc1`: the half-maximal inhibitory concentration (IC50) was determined as 0.002 µM.

Regarding `Brc1cccc(Nc2ncnc3ccccc23)c1`, the IC50 is 0.02 µM and 0.023 µM.

The next assay has as its target EGFR (UniProt P00533). Conditions: various cell lines.
As for `Brc1cccc(Nc2ncnc3cc(NCCCN4CCOCC4)ncc23)c1`, the 50% inhibitory concentration (IC50) came out at 0.038 µM.

`CN(C)CCCCNc1cc2ncnc(Nc3cccc(Br)c3)c2cn1` registered an IC50 of 0.0081 µM.

Molecule `CN(C)CCNc1cc2c(Nc3cccc(Br)c3)ncnc2cn1` had an IC50 of 0.048 µM.

As for `Brc1cccc(Nc2ncnc3cc4[nH]ccc4cc23)c1`, the 50% inhibitory concentration (IC50) turned out to be 0.02 µM.

For `COc1cc2nccc(Oc3cccc(Br)c3)c2cc1OC`, the half-inhibitory concentration (IC50) turned out to be 2.5 µM.

As for `Brc1cccc(Nc2ncnc3cnc(NCCN4CCOCC4)cc23)c1`, the IC50 was found to be 0.0079 µM.

As for `Brc1cccc(Nc2ncnc3cc4c(ccn4CCN4CCOCC4)cc23)c1`, the half-inhibitory concentration (IC50) turned out to be 0.016 µM.

Consider `CNc1ncc2ncnc(Nc3cccc(Br)c3)c2n1`, for which the half-inhibitory concentration (IC50) amounted to 0.03 µM.

`COc1cc2ncnc(Oc3cccc(Br)c3)c2cc1OC`: the IC50 worked out at 0.07 µM.

In the case of `C/C(O)=C(/C#N)C(=O)Nc1ccc(C(F)(F)F)cc1`, the IC50 was 35 µM.

Turning to `Brc1cccc(Nc2ncnc3cnc(NCCc4c[nH]cn4)nc23)c1`, the IC50 was 0.0051 µM.

In the case of `CCN(CC)CC(O)CNc1cc2c(Nc3cccc(Br)c3)ncnc2cn1` (centres undefined), the IC50 came out at 0.028 µM.

Consider `CN(C)Cc1c[nH]c2cc3ncnc(Nc4cccc(Br)c4)c3cc12`, for which the IC50 was found to be 0.0097 µM.

In turn, `CNc1cc2c(Nc3cccc(Br)c3)ncnc2cn1` came in with a 50% inhibitory concentration (IC50) of 0.013 µM.

The molecule `Brc1cccc(Nc2ncnc3cc4[nH]cc(CN5CCOCC5)c4cc23)c1` returned an IC50 of 0.0096 µM.

Regarding `COc1cc2cc(-c3ccccc3)c(Cl)nc2cc1OC`, the IC50 was more than 0.03 µM.

For the molecule `C=CC(=O)Nc1cccc2c1sc1c(Nc3cccc(Br)c3)ncnc12`, the half-inhibitory concentration (IC50) amounted to 0.024 µM.
